Key:
[1] = system: MCF7 cells; test: Cell cycle analysis by propidium iodide staining; assay type: cell-based; details: 1 μM, 24 hours
Procedure: For propidium iodide (PI) staining, treated cells (~1 million per condition) were washed with cold PBS, then fixed in 80% ethanol overnight at −20 °C. After fixing, cells were pelleted, washed with PBS, and reconstituted in 500 μL FxCycle PI / RNAse A staining solution (Thermo Fisher). Cells were stored overnight at 4 °C and analyzed using a BD Fortessa flow cytometer.

[2] = system: TC32 cells; test: Cell viability (CellTiter-Glo) in TC32 cells expressing sgRNA (TP53-KO vs control); assay type: cell-based; details: 3 days
Procedure: Cells were plated in 384-well culture-treated plates and allowed to settle overnight. After drug treament and appropriate incubation time, cell viability was assessed using the CellTiter-Glo Luminescent Cell Viability Assay (Promega). Luminescence was read on a Fluostar Omega Reader (BMG Labtech).

[3] = molecular target: T1, RPS19 (Homo sapiens, UniProt P39019); test: XL177A-DTB chemoproteomic profiling with XL177A competition, RPS19; assay type: binding; details: RPS19 reporter ion intensity
T1 construct: endogenous in cells; host or cells: HEK 293AD lysate
Procedure: HEK 293AD cells were lysed as described above, and the lysate was cleared by centrifugation. Samples were diluted to 10 mg/mL, and 200 μL lysate (2 mg protein total) was incubated with the indicated concentrations of XL177A for 4 hours at RT, then 2 μM of WH114A for 4 additional hours. SDS was added to a final concentration of 1.2% (27.2 μL of a 10% stock), and denatured by heating to 80 °C for 5 minutes. After cooling to RT, 1125 μL 1X PBS was added to dilute the final SDS concentration to 0.2%. 50 μL streptavidin agarose slurry was added to each sample, followed by incubation at RT for 3 hours. After streptavidin enrichment, samples were washed vigorously (2×0.2% SDS, 3x PBS, 3x ddH2O). After the final wash, all supernatant was removed using a flat-bottom tip, and the resin was flash frozen and stored at −80 °C until workup for TMT labeling.
To remove rapigest, recovered supernatants were acidified with 10% TFA, incubated at 37 °C for 45 minutes, and centrifuged at 14,000 rpm for 15 minutes at 4 °C. Peptides were then desalted by C18, and dried by vacuum centrifugation. Dried peptides were reconstituted in 50 mM pH8.0 TEAB and labeled with TMT reagent at RT for 1 hour. TMT reactions were pooled and treated with hydroxylamine according to the manufacturer’s instructions. Peptide mixtures were then dried, reconstituted in 50 mM ammonium bicarbonate and desalted by SP3[53]. Eluted peptides were then analyzed by nanoflow LC-MS/MS as described[64] with a NanoAcquity UPLC system (Waters, Milford, MA) interfaced to a QExactive HF mass spectrometer (Thermofisher Scientific, San Jose, CA). TMT labeled peptides were injected onto a precolumn (4 cm POROS 10R2, Applied Biosystems, Framingham, MA), resolved on an analytical column (30 µm I.D. × 50 cm packed with 5 µm Monitor C18) and introduced to the mass spectrometer by ESI (spray voltage = 3.5 kV, flow rate ~30 nL/min). The mass spectrometer was operated in data dependent mode such that the 15 most abundant ions in each MS scan (m/z 300–2000, 120 K resolution, target = 3E6, lock mass for 445.120025 enabled) were subjected to MS/MS (m/z 100–2000, 30 K resolution, target = 1E5, max fill time = 100 ms). Dynamic exclusion was selected with a repeat count of 1 and an exclusion time of 30 seconds. MS/MS data was extracted to.mgf using mulitplierz scripts[54],[55] and searched against a forward-reverse human NCBI refseq database using Mascot version 2.6. Search parameters specified fixed carbamidomethylation of cysteine, fixed N-terminal and lysine TMT labelling, and variable oxidation (methionine). Additional multiplierz scripts were used to filter results to 1% FDR and derive protein-level aggregate reporter ion intensities using peptides mapping uniquely into the genome.

[4] = molecular target: T2, USP7 catalytic domain (Homo sapiens, UniProt Q93009); test: Intact MS / CE-MS labeling of purified USP7 catalytic domain; assay type: binding; details: 2.5-fold molar excess compound
T2 construct: catalytic domain (208–560) used were cloned as described; inferred from Ni-NTA purification; made in house; host or cells: E. coli BL21 (DE3)
Procedure: Purified USP7 catalytic domain was diluted to 20 μM in 10 μL labeling buffer (20 mM HEPES pH 7.5, 150 mM NaCl, 1 mM TCEP) and incubated for the indicated times with 50 μM (2.5×) compound. After incubation, samples were flash frozen in liquid nitrogen and stored at −80 °C until analysis.
Intact mass analysis was performed by injecting 5 µg USP7 catalytic domain onto a self-packed reversed phase column (1/32” O.D. × 500 um I.D., 5 cm of POROS 10R2 resin). After desalting, protein was eluted with an HPLC gradient (0–100% B in 4 minutes, A = 0.2 M acetic acid in water, B = 0.2 M acetic acid in acetonitrile, flow rate ~30 µL/min) into an LTQ ion trap mass spectrometer (ThermoFisher Scientific, San Jose, CA). Mass spectra were processed using MagTran1.03b2[52].
Peptides were desalted using SP3[53], dried by vacuum centrifugation, and reconstituted in 1% formic acid/50% acetonitrile with 100 mM ammonium acetate. Peptides were then analyzed by CE-MS using a ZipChip CE system and autosampler (908 Devices, Boston, MA) interfaced to a QExactive HF mass spectrometer (ThermoFisher Scientific, San Jose, CA). Peptide solution was loaded for 30 seconds, and the mass spectrometer was operated in data dependent mode and subjected the 5 most abundant ions in each MS scan (60k resolution, 3E6 target, lock mass enabled) to MS/MS (15k resolution, 1E5 target, 100 ms max inject time). […]

[5] = XL177A-DTB pulldown, HEK293AD lysate pre-treated 100nM XL177A
[6] = XL177A-DTB pulldown, HEK293AD lysate pre-treated 1uM XL177A
[7] = XL177A-DTB pulldown, HEK293AD lysate pre-treated 10uM XL177A
[8] = average of Run 1 and Run 2, 100nM XL177A
[9] = average of Run 1 and Run 2, 1uM XL177A
[10] = average of Run 1 and Run 2, 10uM XL177A

T2 sequence (Q93009 208-560): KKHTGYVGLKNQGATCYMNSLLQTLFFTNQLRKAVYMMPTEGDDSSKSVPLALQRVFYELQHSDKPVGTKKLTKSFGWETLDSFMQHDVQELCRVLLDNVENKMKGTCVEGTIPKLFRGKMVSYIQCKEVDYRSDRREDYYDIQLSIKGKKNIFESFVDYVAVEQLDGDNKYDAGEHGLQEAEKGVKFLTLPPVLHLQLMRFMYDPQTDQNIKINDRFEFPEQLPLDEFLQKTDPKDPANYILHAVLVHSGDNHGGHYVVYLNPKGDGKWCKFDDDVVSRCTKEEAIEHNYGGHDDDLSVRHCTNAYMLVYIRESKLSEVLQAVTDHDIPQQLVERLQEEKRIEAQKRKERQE

- Run 1 100nM 1 [3, 5]: 201720
- Run 1 100nM 2 [3, 5]: 193904
- Run 1 100nM 3 [3, 5]: 198261
- Run 2 100nM 1 [3, 5]: 185482
- Run 2 100nM 2 [3, 5]: 186116
- Run 2 100nM 3 [3, 5]: 181339
- Run 1 1uM 1 [3, 6]: 206285
- Run 1 1uM 2 [3, 6]: 969196
- Run 1 1uM 3 [3, 6]: 327663
- Run 2 1uM 1 [3, 6]: 160877
- Run 2 1uM 2 [3, 6]: 741636
- Run 2 1uM 3 [3, 6]: 244076
- Run 1 10uM 1 [3, 7]: 152789
- Run 1 10uM 2 [3, 7]: 213160
- Run 2 10uM 1 [3, 7]: 210280
- Run 2 10uM 2 [3, 7]: 197443
- AVE 100nM 1 [3, 8]: 193601
- AVE 100nM 2 [3, 8]: 190010
- AVE 100nM 3 [3, 8]: 189800
- AVE 1uM 1 [3, 9]: 183581
- AVE 1uM 2 [3, 9]: 855416
- AVE 1uM 3 [3, 9]: 285870
- AVE 10uM 1 [3, 10]: 181534
- AVE 10uM 2 [3, 10]: 205302
- labeling of USP7 catalytic domain by MS [4]: Quantitative labeling
Compound: CN1CCN(CCC(=O)Nc2ccc3c(=O)n(CC4(O)CCN(C(=O)[C@@H](CCCNC(=O)c5ccc6c(Cl)c7c(nc6c5)CCCC7)Cc5ccccc5)CC4)cnc3c2)CC1 [XL177A]
- cell cycle effect [1]: complete G1 arrest
- effect of TP53 KO on growth suppression [2]: completely rescued TC32 growth except at high doses
